Target: T1, Human M4 (Homo sapiens, UniProt P08173)
T1 construct: expressed in transfected cells; host or cells: CHO-K1 (ATCC), stably expressing hM4 and Gqi5
T1 sequence (P08173 1-479): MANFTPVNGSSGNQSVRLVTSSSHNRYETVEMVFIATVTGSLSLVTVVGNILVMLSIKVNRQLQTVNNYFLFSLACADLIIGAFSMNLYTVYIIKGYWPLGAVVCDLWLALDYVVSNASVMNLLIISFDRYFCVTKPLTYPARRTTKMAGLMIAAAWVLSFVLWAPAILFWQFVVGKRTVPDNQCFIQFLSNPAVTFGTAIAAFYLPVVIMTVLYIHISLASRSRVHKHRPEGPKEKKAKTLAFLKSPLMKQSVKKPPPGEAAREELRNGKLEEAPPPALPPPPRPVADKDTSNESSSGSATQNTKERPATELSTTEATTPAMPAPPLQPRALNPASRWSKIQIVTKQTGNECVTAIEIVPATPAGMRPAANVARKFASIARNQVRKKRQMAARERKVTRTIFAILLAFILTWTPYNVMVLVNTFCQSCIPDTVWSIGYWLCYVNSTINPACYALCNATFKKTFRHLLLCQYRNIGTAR
Assay: mAChR M4 cell-based functional assay (calcium flux, potentiation of EC20 acetylcholine response) in hM4-Gqi5 CHO-K1 cells
Conditions: for Emax at 30 µM: % ACh maximum at 30 μM, human M4 CHO-K1 cells; for EC50: CHO-K1 cells transfected with human M4 and Gqi5, positive allosteric modulator activity, EC20 acetylcholine
Procedure: Human M4 cDNA, along with the chimeric G protein Gqi5, were transfected into Chinese hamster ovary (CHO-K1) cells purchased from the American Type Culture Collection using commercially available Lipofectamine 2000 transfection reagent (Dalby, B. et al., Methods (2004) 33(2), 95-103). hM4-Gqi5 cells were grown in Ham's F-12 medium containing 10% heat-inactivated fetal bovine serum (FBS), 20 mM HEPES, 50 μg/mL G418 sulfate (CAS #108321-42-2), and 500 μg/mL Hygromycin B. rM4-Gqi5 cells were grown in DMEM containing 10% heat-inactivated FBS, 20 mM HEPES, 400 μg/mL G418 sulfate, and 500 μg/mL Hygromycin B.
For high throughput measurement of agonist-evoked increases in intracellular calcium, CHO-K1 cells stably expressing muscarinic receptors were plated in growth medium lacking G418 sulfate and hygromycin at 15,000 cells/20 μL/well in Greiner 384-well black-walled, tissue culture (TC)-treated, clear-bottom plates (VWR). Cells were incubated overnight at 37° C. and 5% CO2. The next day, cells were washed using an ELX 405 (BioTek) with assay buffer; the final volume was then aspirated to 20 μL. Next, 20 μL of a 2.3 μM stock of Fluo-4/acetoxymethyl ester (Invitrogen, Carlsbad, CA), prepared as a 2.3 mM stock in DMSO and mixed in a 1:1 ratio with 10% (w/v) Pluronic F-127 and diluted in assay buffer, was added to the wells and the cell plates were incubated for 50 minutes at 37° C. and 5% CO2. Dye was removed by washing with the ELX 405 and the final volume was aspirated to 20 μL. Compound master plates were formatted in an 11 point concentration-response curve (CRC) format (1:3 dilutions) in 100% DMSO with a starting concentration of 10 mM using a BRAVO liquid handler (Agilent). Test compound CRCs were then transferred to daughter plates (240 nL) using the Echo acoustic plate reformatter (Labcyte, Sunnyvale, CA) and then diluted into assay buffer (40 μL) to a 2× stock using a Thermo Fisher Combi (Thermo Fisher Scientific, Waltham, MA).
Calcium flux was measured using the Functional Drug Screening System (FDSS) 6000 or 7000 (Hamamatsu Corporation, Tokyo, Japan) as an increase in the fluorescent static ratio. Compounds were applied to cells (20 μL, 2×) using the automated system of the FDSS at 2-4 seconds into the protocol and the data were collected at 1 Hz. […] Agonist activity was analyzed as a concentration-dependent increase in calcium mobilization upon compound addition. Positive allosteric modulator activity was analyzed as a concentration-dependent increase in the EC20 acetylcholine response. With the acetylcholine EC20 set as baseline, the test compound EC50 is determined as the concentration that produces an increase above baseline of 50% of the maximum increase in acetylcholine response elicted by the test compound. Antagonist activity was analyzed as a concentration-dependent decrease in the EC80 acetylcholine response. Concentration-response curves were generated using a four-parameter logistical equation in XLFit curve fitting software (IDBS, Bridgewater, NJ) for Excel (Microsoft, Redmond, WA) or Prism (GraphPad Software, Inc., San Diego, CA).
Compounds were synthesized as described above. Activity (EC50 and Emax) was determined in the mAChR M4 cell-based functional assay as described above and the data are shown in Table 5. The compound numbers correspond to the compound numbers used in Examples 1-13 and Tables 1, 2, and 3.

Row | Emax at 30 µM | EC50 | SMILES
1 | 96% | 60 nM | Cc1csc2ncnc(N3CCc4ncc(N5CCCn6nccc65)cc4C3)c12 [Compound 25, 4-[3-(6,7-dihydro-5H-pyrazolo[1,5-a]pyrimidin-4-yl)-7,8-dihydro-5H-1,6-naphthyridin-6-yl]-5-methyl-thieno[2,3-d]pyrimidine]
2 | 75% | 280 nM | Cc1csc2ncnc(N3CCc4ncc(-c5cnn(C6CC6)c5)cc4C3)c12 [Compound 26, 4-[3-(1-cyclopropylpyrazol-4-yl)-7,8-dihydro-5H-1,6-naphthyridin-6-yl]-5-methyl-thieno[2,3-d]pyrimidine]
3 | 36% | 2380 nM | Cc1ccc(F)c(Oc2cnc3c(c2)CN(c2ncnc4ccsc24)CC3)c1 [Compound 27, 4-[3-(2-fluoro-5-methyl-phenoxy)-7,8-dihydro-5H-1,6-naphthyridin-6-yl]thieno[3,2-d]pyrimidine]
4 | 78% | 90 nM | Cc1nn(C)cc1-c1cnc2c(c1)CN(c1ncnc3scc(C)c13)CC2 [Compound 28, 4-[3-(1,3-dimethylpyrazol-4-yl)-7,8-dihydro-5H-1,6-naphthyridin-6-yl]-5-methyl-thieno[2,3-d]pyrimidine]
5 | 74% | 310 nM | FC(F)(F)c1cnc2c(c1)CN(c1ncnc3scc(Br)c13)CC2 [Compound 29, 5-bromo-4-[3-(trifluoromethyl)-7,8-dihydro-5H-1,6-naphthyridin-6-yl]thieno[2,3-d]pyrimidine]
6 | 88% | 80 nM | FC(F)(F)c1cnc2c(c1)CN(c1ncnc3sc(Br)cc13)CC2 [Compound 30, 6-bromo-4-[3-(trifluoromethyl)-7,8-dihydro-5H-1,6-naphthyridin-6-yl]thieno[2,3-d]pyrimidine]
7 | 58% | 440 nM | CC(C)c1cc2c(N3CCc4ncc(N5CCCn6nccc65)cc4C3)ncnc2s1 [Compound 31, 4-[3-(6,7-dihydro-5H-pyrazolo[1,5-a]pyrimidin-4-yl)-7,8-dihydro-5H-1,6-naphthyridin-6-yl]-6-isopropyl-thieno[2,3-d]pyrimidine]
8 | 59% | 560 nM | Cc1csc2ncnc(N3CCc4ncc(Oc5ccccc5F)cc4C3)c12 [Compound 32, 4-[3-(2-fluorophenoxy)-7,8-dihydro-5H-1,6-naphthyridin-6-yl]-5-methyl-thieno[2,3-d]pyrimidine]
9 | 46% | 200 nM | Fc1ccccc1Oc1cnc2c(c1)CN(c1ncnc3sccc13)CC2 [Compound 33, 4-[3-(2-fluorophenoxy)-7,8-dihydro-5H-1,6-naphthyridin-6-yl]thieno[2,3-d]pyrimidine]
10 | 55% | 100 nM | Cn1nccc1Nc1cnc2c(c1)CN(c1ncnc3sccc13)CC2 [Compound 34, N-(2-methylpyrazol-3-yl)-6-thieno[2,3-d]pyrimidin-4-yl-7,8-dihydro-5H-1,6-naphthyridin-3-amine]
11 | 22% | 1230 nM | Cc1noc(C)c1-c1cnc2c(c1)CN(c1ncnc3sc(C(C)C)cc13)CC2 [Compound 35, 4-[6-(6-isopropylthieno[2,3-d]pyrimidin-4-yl)-7,8-dihydro-5H-1,6-naphthyridin-3-yl]-3,5-dimethyl-isoxazole]
12 | 78% | 160 nM | [2H]c1csc2ncnc(N3CCc4ncc(C(F)(F)F)cc4C3)c12 [Compound 36, 5-deuterio-4-[3-(trifluoromethyl)-7,8-dihydro-5H-1,6-naphthyridin-6-yl]thieno[2,3-d]pyrimidine]
13 | 22% | 1390 nM | FC(F)(F)c1cnc2c(c1)CN(c1ncnc3scc(C4CC4)c13)CC2 [Compound 37, 5-cyclopropyl-4-[3-(trifluoromethyl)-7,8-dihydro-5H-1,6-naphthyridin-6-yl]thieno[2,3-d]pyrimidine]
14 | 83% | 60 nM | Cc1coc2ncnc(N3CCc4ncc(-c5cnn(C6CC6)c5)cc4C3)c12 [Compound 38, 4-[3-(1-cyclopropylpyrazol-4-yl)-7,8-dihydro-5H-1,6-naphthyridin-6-yl]-5-methyl-furo[2,3-d]pyrimidine]
15 | 94% | 80 nM | Cc1coc2ncnc(N3CCc4ncc(Nc5cccnc5F)cc4C3)c12 [Compound 39, N-(2-fluoro-3-pyridyl)-6-(5-methylfuro[2,3-d]pyrimidin-4-yl)-7,8-dihydro-5H-1,6-naphthyridin-3-amine]
16 | 94% | 710 nM | Cc1noc2ncnc(N3CCc4ncc(C(F)(F)F)cc4C3)c12 [Compound 40, 3-methyl-4-[3-(trifluoromethyl)-7,8-dihydro-5H-1,6-naphthyridin-6-yl]isoxazolo[5,4-d]pyrimidine]
17 | 86% | 50 nM | Cc1coc2ncnc(N3CCc4ncc(C(F)(F)F)cc4C3)c12 [Compound 41, 5-methyl-4-[3-(trifluoromethyl)-7,8-dihydro-5H-1,6-naphthyridin-6-yl]furo[2,3-d]pyrimidine]
18 | 99% | 10 nM | Cc1coc2ncnc(N3CCc4ncc(N5CCCn6nccc65)cc4C3)c12 [Compound 42, 4-[3-(6,7-dihydro-5H-pyrazolo[1,5-a]pyrimidin-4-yl)-7,8-dihydro-5H-1,6-naphthyridin-6-yl]-5-methyl-furo[2,3-d]pyrimidine]
19 | 80% | 590 nM | Cc1nn(C)cc1-c1cnc2c(c1)CN(c1ncnc3onc(C)c13)CC2 [Compound 43, 4-[3-(1,3-dimethylpyrazol-4-yl)-7,8-dihydro-5H-1,6-naphthyridin-6-yl]-3-methyl-isoxazolo[5,4-d]pyrimidine]
20 | 95% | 120 nM | Cc1nn(C)cc1-c1cnc2c(c1)CN(c1ncnc3occ(C)c13)CC2 [Compound 44, 4-[3-(1,3-dimethylpyrazol-4-yl)-7,8-dihydro-5H-1,6-naphthyridin-6-yl]-5-methyl-furo[2,3-d]pyrimidine]
21 | 93% | 90 nM | Cc1noc2ncnc(N3CCc4ncc(N5CCCn6nccc65)cc4C3)c12 [Compound 45, 4-[3-(6,7-dihydro-5H-pyrazolo[1,5-a]pyrimidin-4-yl)-7,8-dihydro-5H-1,6-naphthyridin-6-yl]-3-methyl-isoxazolo[5,4-d]pyrimidine]
22 | 75% | 370 nM | Cc1noc2ncnc(N3CCc4ncc(-c5cnn(C6CC6)c5)cc4C3)c12 [Compound 46, 4-[3-(1-cyclopropylpyrazol-4-yl)-7,8-dihydro-5H-1,6-naphthyridin-6-yl]-3-methyl-isoxazolo[5,4-d]pyrimidine]
23 | 125% | 50 nM | Cc1coc2ncnc(N3CCc4ncc(N5CCOc6ncccc65)cc4C3)c12 [Compound 47, 1-[6-(5-methylfuro[2,3-d]pyrimidin-4-yl)-7,8-dihydro-5H-1,6-naphthyridin-3-yl]-2,3-dihydropyrido[2,3-b][1,4]oxazine]

Reference: US20250017935A1, “7,8-DIHYDRO-5H-1,6-NAPHTHYRIDINE DERIVATIVES AS POSITIVE ALLOSTERIC MODULATORS OF THE MUSCARINIC ACETYLCHOLINE RECEPTOR M4 FOR TREATING NEUROLOGICAL AND PSYCHIATRIC DISORDERS” (Vanderbilt University, priority 2021, published 2025)
